Results: US20110319379A1, “Substituted Indazole Amides And Their Use As Glucokinase Activators” (priority 2009, published 2011)
pEC50: −log10 of the molar value.

target: T1, recombinant human glucokinase (Homo sapiens, UniProt P35557); assay: Assay 2: Evaluating Activator Potency in a Matrix Assay at Multiple Glucose Concentrations; assay type: biochemical; conditions: Assay 2 matrix assay; 16 glucose concentrations; intrinsic EC50 = concentration affording a 50% reduction in the enzyme's Km (for glucose); read-out: Glucokinase EC50
T1 construct: Full-length glucokinase (beta cell isoform) was His-tagged at the N-terminus and purified by a Ni column followed by size exclusion chromatography as described above; His tag; made in house; host or cells: E. coli BL21(DE3), vector pBCGK
T1 sequence (P35557 1-465): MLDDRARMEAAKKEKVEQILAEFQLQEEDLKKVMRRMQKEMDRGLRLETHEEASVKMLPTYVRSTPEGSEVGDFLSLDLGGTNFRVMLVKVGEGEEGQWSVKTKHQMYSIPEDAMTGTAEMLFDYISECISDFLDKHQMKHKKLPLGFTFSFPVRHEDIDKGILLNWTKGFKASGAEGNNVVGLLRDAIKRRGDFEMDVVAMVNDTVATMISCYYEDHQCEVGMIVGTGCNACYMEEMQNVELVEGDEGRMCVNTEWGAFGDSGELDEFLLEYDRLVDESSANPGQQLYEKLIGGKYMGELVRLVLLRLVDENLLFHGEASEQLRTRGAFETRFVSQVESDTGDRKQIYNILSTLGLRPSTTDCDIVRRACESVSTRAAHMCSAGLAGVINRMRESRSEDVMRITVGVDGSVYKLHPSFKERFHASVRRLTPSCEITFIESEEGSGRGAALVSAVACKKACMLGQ
Protocol: Representative compounds of this invention were evaluated in biochemical assays (Assay 1 or Assay 2) to characterize their glucokinase activation properties.
The recombinant human glucokinase protein utilized in both assays was prepared and purified as described below.
BL21(DE3) cells (Invitrogen Corporation, Carlsbad, Calif.) containing pBCGK (C or N H is) vector were grown at 37° C. (in 2XYT) until the OD600 was between 0.6-1.0. Expression was induced by addition of isopropylthiogalactoside to a final concentration of 0.1-0.2 mM to the cells which were then incubated overnight at 23° C. The next day, cells were harvested via centrifugation at 5000 rpm for 15 minutes at 4° C. The cell pellet was stored at −80° C. for future purification.
Beta Cell Glucokinase His-Taq Purification Conditions: A Ni-NTA (Quigan, Germantown, Md.) column (15-50 mL) was used for separation. Two buffers were prepared, 1) a lysis/nickel equilibration and wash buffer and 2) a nickel elution buffer. The lysis/equilibration/wash buffer was prepared as such: 25 mM HEPES buffer at pH 7.5, 250 mM NaCl, 20 mM imidazole, and 14 mM β-mercaptoethanol as final concentrations. The elution buffer was prepared as such: 25 mM HEPES at pH 7.5, 250 mM NaCl, 400 mM imidazole, and 14 mM β-mercaptoethanol as final concentrations. The buffers were each filtered with a 0.22 μm filter prior to use. The cell pellet (1 L culture) was resuspended in 300 mL of the lysis/equilibration buffer. The cells were then lysed (3 times) with a Microfluidics Model 110Y microfluidizer (Microfluidics Corporation, Newton, Mass.). The slurry was centrifuged with a Beckman Coulter Model LE-80K ultracentrifuge (Beckman Coulter, Fullerton, Calif.) at 40,000 rpm for 45 minutes at 4° C. The supernatant was transferred to a chilled flask. A volume of 20 μl was saved for gel analysis. A Pharmacia AKTA (GMI, Inc., Ramsey, Minn.) purification system was used for separation. The prime lines were purged with lysis/equilibration buffer. The Ni-NTA column was equilibrated with 200 mL of the lysis/equilibration buffer at a flow rate of 5 mL/minute. The supernantant was loaded over the column at 4 mL/minute and the flow-through was collected in a flask. The unbound proteins were washed with lysis/equilibration buffer at a flow rate of 5 mL/minute until the ultraviolet reaches baseline. The protein was then eluted from the column with the imidazole elution buffer via imidazole gradient 20 mM to 400 mM over 320 mL. The column was then stripped of any additional protein with 80 mL of the elution buffer. The elution fractions were each 8 mL, for a total yield of 50 samples. Fractions were analyzed by sodium dodecyl sulfate polyacrylamide (SDS-PAGE) and the fractions containing protein of interest were pooled and concentrated to 10 mL using ultrafiltration cell with a 10,000 molecular weight cut-off (MWCO) Millipore membrane (Sigma-Aldrich, St. Louis, Mo.) under nitrogen gas (60 psi). Protein was further purified by size exclusion chromatography (SEC) using a […] (320 mL) (Amersham Pharmacia, Uppsala, Sweden). SEC was equilibrated with 450 mL sizing buffer containing 25 mM HEPES pH 7.0, 50 mM NaCl, and 5 mM dithiothreitol. Concentrated protein was then loaded over SEC and elution with 400 mL sizing buffer was performed overnight at 0.5 mL/minute. The elution fractions were 5 mL each. The fractions were analyzed by SDS-PAGE and protein containing fractions were pooled. Concentration was measured using Bradford Assay/BSA Standard. Purified protein was stored in small aliquots at −80° C.
Assay 2: Evaluating Activator Potency in a Matrix Assay at Multiple Glucose Concentrations
Utilizing an adaptation of this method, representative compounds of the current invention were evaluated at 22 different concentrations and 16 different glucose concentrations in a coupled enzyme assay system that detects glucokinase activity via depletion of β-NADH.

Compound	pEC50
CCn1cc2c(Oc3cnc(C(=O)N(C)C)cn3)cc(C(=O)Nc3cnc(OC)cn3)cc2n1 [Example 1AF, 4-(5-(dimethylcarbamoyl)pyrazin-2-yloxy)-2-ethyl-N-(5-methoxypyrazin-2-yl)-2H-indazole-6-carboxamide]	6.27
Cc1cnc(NC(=O)c2cc(Oc3ccc(C(=O)N(C)C)cc3)c3cn(C)nc3c2)cn1 [Example 1AG, 4-(4-(dimethylcarbamoyl)phenoxy)-2-methyl-N-(5-methylpyrazin-2-yl)-2H-indazole-6-carboxamide]	6.15
Cn1cc2c(Oc3cnc(C(=O)N4CCC4)cn3)cc(C(=O)Nc3cnn(C)n3)cc2n1 [Example 1AH, 4-(5-(azetidine-1-carbonyl)pyrazin-2-yloxy)-2-methyl-N-(2-methyl-2H-1,2,3-triazol-4-yl)-2H-indazole-6-carboxamide]	4.44
CN(C)S(=O)(=O)c1ccc(Oc2cc(C(=O)Nc3cnn(C)n3)cc3nn(C)cc23)cc1 [Example 1AJ, 4-{4-[(dimethylamino)sulfonyl]phenoxy}-2-methyl-N-(2-methyl-2H-1,2,3-triazol-4-yl)-2H-indazole-6-carboxamide]	6.15
CNS(=O)(=O)c1ccc(Oc2cc(C(=O)Nc3cnc(C)cn3)cc3nn(C)cc23)cc1 [Example 1AK, 4-{4-[(methylamino)sulfonyl]phenoxy}-2-methyl-N-(5-methylpyrazin-2-yl)-2H-indazole-6-carboxamide]	6.06
Cc1cnc(NC(=O)c2cc(Oc3ccc(S(=O)(=O)N(C)C)nc3)c3cn(C)nc3c2)cn1 [Example 1AL, 4-({6-[(dimethylamino)sulfonyl]pyridin-3-yl}oxy)-2-methyl-N-(5-methylpyrazin-2-yl)-2H-indazole-6-carboxamide]	5.50
CN(C)S(=O)(=O)c1ccc(Oc2cc(C(=O)Nc3ccn(C)n3)cc3nn(C)cc23)cn1 [Example 1AM, 4-({6-[(dimethylamino)sulfonyl]pyridin-3-yl}oxy)-2-methyl-N-(1-methyl-1H-pyrazol-3-yl)-2H-indazole-6-carboxamide]	5.41
CCn1cc2c(Oc3cnc(N(C)S(C)(=O)=O)cn3)cc(C(=O)Nc3ccc(C)cn3)cc2n1 [Example 1AN, 2-ethyl-4-({5-[methyl(methylsulfonyl)amino]pyrazin-2-yl}oxy)-N-(5-methylpyridin-2-yl)-2H-indazole-6-carboxamide]	6.27
Cn1ccc(NC(=O)c2cc(Oc3ccc(S(C)(=O)=O)nc3)c3cn(C)nc3c2)n1 [Example 1AO, 2-methyl-N-(1-methyl-1H-pyrazol-3-yl)-4-{[6-(methylsulfonyl)pyridin-3-yl]oxy}-2H-indazole-6-carboxamide]	5.89

Continued, values first:

pEC50	Compound
6.26	CCn1cc2c(Oc3ccc(S(C)(=N)=O)cc3)cc(C(=O)Nc3ccc(C)cn3)cc2n1 (single isomer, unassigned) [Example 1CW, 2-ethyl-N-(5-methylpyridin-2-yl)-4-[4-(S-methylsulfonimidoyl)phenoxy]-2H-indazole-6-carboxamide]
5.86	CCn1cc2c(Oc3ccc(S(C)(=N)=O)cc3)cc(C(=O)Nc3ccc(C)cn3)cc2n1 (single isomer, unassigned) [Example 1CX, 2-ethyl-N-(5-methylpyridin-2-yl)-4-[4-(S-methylsulfonimidoyl)phenoxy]-2H-indazole-6-carboxamide]
5.84	Cc1ccc(NC(=O)c2cc(Oc3ccc(S(C)(=O)=O)nc3)c3cn(C)nc3c2)nc1 [Example 1AP, 2-methyl-N-(5-methylpyridin-2-yl)-4-{[6-(methylsulfonyl)pyridin-3-yl]oxy}-2H-indazole-6-carboxamide]
5.27	Cc1cnc(NC(=O)c2cc(Oc3ccc(S(C)(=O)=O)nc3)c3cn(C)nc3c2)cn1 [Example 1AQ, 2-methyl-N-(5-methylpyrazin-2-yl)-4-{[6-(methylsulfonyl)pyridin-3-yl]oxy}-2H-indazole-6-carboxamide]
6.26	Cc1ccc(NC(=O)c2cc(Oc3ccc(S(C)(=O)=O)cc3C(F)(F)F)c3cn(C)nc3c2)nc1 [Example 1AR, 2-methyl-N-(5-methylpyridin-2-yl)-4-[4-(methylsulfonyl)-2-(trifluoromethyl)phenoxy]-2H-indazole-6-carboxamide]
5.31	CCn1cc2c(Oc3cnc(NS(C)(=O)=O)cn3)cc(C(=O)Nc3ccc(C)cn3)cc2n1 [Example 1AT, 2-ethyl-N-(5-methylpyridin-2-yl)-4-({5-[(methylsulfonyl)amino]pyrazin-2-yl}oxy)-2H-indazole-6-carboxamide]
5.21	Cn1ccc(NC(=O)c2cc(Oc3ccc(S(N)(=O)=O)cc3)c3cn(C)nc3c2)n1 [Example 1AU, 4-[4-(aminosulfonyl)phenoxy]-2-methyl-N-(1-methyl-1H-pyrazol-3-yl)-2H-indazole-6-carboxamide]
6.09	Cc1ccc(NC(=O)c2cc(Oc3ccc4c(c3)CCS4(=O)=O)c3cn(C)nc3c2)nc1 [Example 1AV, 4-[(1,1-dioxido-2,3-dihydro-1-benzothien-5-yl)oxy]-2-methyl-N-(5-methylpyridin-2-yl)-2H-indazole-6-carboxamide]
6.01	CCn1cc2c(Oc3ccc4c(c3)CCS4(=O)=O)cc(C(=O)Nc3ccc(C)cn3)cc2n1 [Example 1AW, 4-[(1,1-dioxido-2,3-dihydro-1-benzothien-5-yl)oxy]-2-ethyl-N-(5-methylpyridin-2-yl)-2H-indazole-6-carboxamide]
6.25	CCn1cc2c(Oc3ccc(S(C)(=O)=O)cc3)cc(C(=O)Nc3cnc(OC)cn3)cc2n1 [Example 1AX, 2-ethyl-N-(5-methoxypyrazin-2-yl)-4-[4-(methylsulfonyl)phenoxy]-2H-indazole-6-carboxamide]
6.17	CCS(=O)(=O)N(C)c1cnc(Oc2cc(C(=O)Nc3ccc(C)cn3)cc3nn(C)cc23)cn1 [Example 1AY, 4-({5-[(ethylsulfonyl)(methyl)amino]pyrazin-2-yl}oxy)-2-methyl-N-(5-methylpyridin-2-yl)-2H-indazole-6-carboxamide]

same assay, conditions: Glucokinase EC50, Assay 2 matrix assay; 16 glucose concentrations; intrinsic EC50 = concentration affording a 50% reduction in the enzyme's Km (for glucose)

Compound	pEC50
Cc1cnc(NC(=O)c2cc(Oc3ccc(S(=O)(=O)N(C)C)cc3)c3cn(C)nc3c2)cn1 [Example 1AI, 4-{4-[(dimethylamino)sulfonyl]phenoxy}-2-methyl-N-(5-methylpyrazin-2-yl)-2H-indazole-6-carboxamide]	6.37
Cc1cnc(NC(=O)c2cc(Oc3ccc(S(N)(=O)=O)cc3)c3cn(C)nc3c2)cn1 [Example 1AS, 4-[4-(aminosulfonyl)phenoxy]-2-methyl-N-(5-methylpyrazin-2-yl)-2H-indazole-6-carboxamide]	5.64
